Results reported in patent publication US20090264420A1, “ORGANIC COMPOUNDS” (priority 2006, published 2009).

Columns and labels:
aldosterone synthase = target: T1, aldosterone synthase (Homo sapiens, UniProt P19099); test: Aldosterone production in Ang II-stimulated NCI-H295R cells (aldosterone synthase inhibition); type: cell-based; conditions: AS: aldosterone synthase
T1 construct: host or cells: NCI-H295R
T1 sequence (P19099 25-503): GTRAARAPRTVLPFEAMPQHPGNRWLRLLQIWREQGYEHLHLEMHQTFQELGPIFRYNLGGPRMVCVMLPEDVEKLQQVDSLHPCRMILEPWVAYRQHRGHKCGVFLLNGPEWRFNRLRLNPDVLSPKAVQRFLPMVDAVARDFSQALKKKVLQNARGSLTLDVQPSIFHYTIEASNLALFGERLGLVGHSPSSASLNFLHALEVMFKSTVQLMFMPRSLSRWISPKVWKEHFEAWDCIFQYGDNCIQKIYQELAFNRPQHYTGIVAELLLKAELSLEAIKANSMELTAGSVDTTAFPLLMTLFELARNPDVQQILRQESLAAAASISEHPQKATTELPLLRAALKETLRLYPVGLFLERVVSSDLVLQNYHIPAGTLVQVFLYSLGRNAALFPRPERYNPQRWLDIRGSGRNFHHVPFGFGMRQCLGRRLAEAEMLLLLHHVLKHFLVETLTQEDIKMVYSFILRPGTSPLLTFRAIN
Excerpt: (§1) Human adrenocortical carcinoma NCI-H295R cell line is obtained from American Type Culture Collection (Manassas, Va.). Insulin/transferrin/selenium (ITS)-A supplement (100×), DMEM/F-12, antibiotic/antimycotic (100×), and fetal calf serum (FCS) are purchased from Gibco (Grand Island, N.Y.). Anti-mouse PVT scintillation proximity assay (SPA) beads and NBS 96-well plates are obtained from Amersham (Piscataway, N.J.) and Corning (Acton, Mass.), respectively. Solid black 96-well flat bottom plates are purchased from Costar (Corning, N.Y.). Aldosterone and angiotensin (Ang II) are purchased from Sigma (St. Louis, Mo.). D-[1,2,6,7^−3H(N)]aldosterone was acquired from PerkinElmer (Boston, Mass.). Nu-serum was a product of BD Biosciences (Franklin Lakes, N.J.). The NADPH regenerating system, dibenzylfluorescein (DBF), and human aromatase Supersomes® are obtained from Gentest (Woburn, Mass.).
For in vitro measurement of aldosterone activity, human adrenocortical carcinoma NCI-H295R cells are seeded in NBS 96-well plates at a density of 25,000 cells/well in 100 μl′ of a growth medium containing DMEM/F12 supplemented with 10% FCS, 2.5% Nu-serum, 1 μg ITS/ml, and 1× antibiotic/antimycotic. The medium is changed after culturing for 3 days at 37° C. under an atmosphere of 5% CO2/95% air. On the following day, cells are rinsed with 100 μl of DMEM/F12 and incubated with 100 μl of treatment medium containing 1 μM Ang II and a compound at different concentrations in quadruplicate wells at 37° C. for 24 hr. At the end of incubation, 50 μl of medium is withdrawn from each well for measurement of aldosterone production by an RIA using mouse anti-aldosterone monoclonal antibodies.
Measurement of aldosterone activity can also be performed using, a 96-well plate format. Each test sample is incubated with 0.02 μCi of D-[1,2,6,7-^3H(N)]aldosterone and 0.3 μg of anti-aldosterone antibody in phosphate-buffered saline (PBS) containing 0.1% Triton X-100, 0.1% bovine serum albumin, and 12% glycerol in a total volume of 200 μl at room temperature for 1 hr. Anti-mouse PVT SPA beads (50 μl) are then added to each well and incubated overnight at room temperature prior to counting in a Microbeta plate counter. The amount of aldosterone in each sample is calculated by comparing with a standard curve generated using known quantities of the hormone.
(§2) Full concentration-response curves of the test compound are performed at least 3 times. The IC50 values are derived using a non-linear least squares curve-fitting program from Microsoft XLfit.

human aromatase = target: T2, human aromatase (Homo sapiens, UniProt P11511); test: Human aromatase assay with dibenzylfluorescein substrate (fluorescence); type: biochemical; conditions: 1.5 h; percentage of inhibitory rate at 10 μM; ARO: Aromatase; read-out: ARO % I @ 10 μM
T2 construct: purchased Gentest (Woburn, Mass.)
T2 sequence (P11511 1-503): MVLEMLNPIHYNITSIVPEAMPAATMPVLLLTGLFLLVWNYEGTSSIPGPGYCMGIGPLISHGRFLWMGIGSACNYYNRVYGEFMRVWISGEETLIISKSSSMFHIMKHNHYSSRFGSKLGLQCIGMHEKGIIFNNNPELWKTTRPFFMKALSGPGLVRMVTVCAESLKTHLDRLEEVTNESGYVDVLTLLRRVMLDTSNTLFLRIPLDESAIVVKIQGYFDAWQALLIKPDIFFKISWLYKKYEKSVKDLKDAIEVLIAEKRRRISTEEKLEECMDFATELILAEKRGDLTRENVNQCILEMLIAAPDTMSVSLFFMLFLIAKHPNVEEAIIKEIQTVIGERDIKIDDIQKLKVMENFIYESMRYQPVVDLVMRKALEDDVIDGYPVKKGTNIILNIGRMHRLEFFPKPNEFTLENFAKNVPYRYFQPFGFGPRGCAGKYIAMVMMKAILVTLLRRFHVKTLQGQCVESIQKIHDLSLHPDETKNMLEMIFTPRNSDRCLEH
Excerpt: as §1
To measure aromatase activity, the human aromatase assay is performed in 96-well flat bottom plates according to a published protocol (Stresser et al, 2000) with minor modifications. Briefly, 10 μl, of an NADPH regenerating system containing 2.6 mM NADP^+, 6.6 mM glucose 6-phosphate, 6.6 mM MgCl2, and 0.8 U/ml glucose-6-phosphate dehydrogenase in 50 mM potassium phosphate, pH 7.4, is pre-incubated with the test compound at a desired concentration at 30° C. for 10 min in a total volume of 100 μl. Afterwards, 4 pmol of human aromatase, 20 μg of control microsomal protein, and 4 μM DBF in 100 μl of 50 mM potassium phosphate, pH 7.4, is added to each well and incubated at 30° C. for 90 min. The reaction is terminated by the addition of 75 μl of 2 N NaOH to each well. After 2 hr, the product, fluorescein, is measured by a fluorimeter using excitation and emission wavelengths of 485 and 538 nm, respectively.
as §2

CYP11B1 = target: T3, CYP11B1 (Homo sapiens, UniProt P15538); test: CYP11B1 inhibition in NCI-H295R cells (steroid release by radioimmunoassay); type: cell-based; conditions: percentage of inhibitory rate at 100 nM; 11B1: CYP11B1
T3 construct: Thus, the NCI-H295R cells have Cyp 11 B1 (steroid 11 p-hydroxylase); host or cells: NCI-H295R
T3 sequence (P15538 25-503): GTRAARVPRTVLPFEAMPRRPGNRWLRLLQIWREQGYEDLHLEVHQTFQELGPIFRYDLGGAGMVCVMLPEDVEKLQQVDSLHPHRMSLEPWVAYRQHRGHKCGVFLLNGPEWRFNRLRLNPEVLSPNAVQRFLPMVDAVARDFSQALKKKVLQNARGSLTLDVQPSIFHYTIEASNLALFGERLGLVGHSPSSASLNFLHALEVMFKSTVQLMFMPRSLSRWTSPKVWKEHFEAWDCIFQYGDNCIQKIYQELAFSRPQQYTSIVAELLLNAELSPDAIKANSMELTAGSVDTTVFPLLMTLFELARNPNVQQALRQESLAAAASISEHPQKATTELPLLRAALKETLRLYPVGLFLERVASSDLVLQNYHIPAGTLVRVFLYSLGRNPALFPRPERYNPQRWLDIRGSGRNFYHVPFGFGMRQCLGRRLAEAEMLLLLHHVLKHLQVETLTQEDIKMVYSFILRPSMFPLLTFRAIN
Excerpt: The in vitro inhibitory activities for CYP 11 B1 can be determined by the following assay.
The cell line NCI-H295R was originally isolated from an adrenocortical carcinoma and has been characterized in the literature through the stimulable secretion of steroid hormones and the presence of the enymes essential for steroidogenesis. Thus, the NCI-H295R cells have Cyp 11 B1 (steroid 11 p-hydroxylase). The cells show the physiological property of zonally undifferentiated human foetal adrenocortical cells which, however, have the capacity to produce the steroid hormones which are formed in the three, phenotypically distinguishable zones in the adult adrenal, cortex.
The NCI-H295R cells (American Type Culture Collection, ATCC, Rockville, Md., USA) are grown in Dulbeoco's Modified Eagle Ham F-12 Medium (DME/F12), which has been I supplemented with Ulroser SF Serum (Soprachem, Cergy-Saint-Christophe, France), insulin, transferrin, selenite (1-T-S, Becton Dickinson Biosiences, Franklin lakes, NJ, USA) and antibiotics in 75 cm^2 cell culture vessels at 37° C. and in a 95% air-5% carbon dioxide atmosphere. The cells are subsequently transferred for colony formation into a 24-well incubation vessel. They are cultivated there in DME/F12 medium, which is now supplemented with 0.1% bovine serum instead of Ultroser SF for 24 hours. The experiment is initiated by cultivating the cells in DME/F12 medium which is supplemented with 0.1% bovine serum albumin and test compound, in the presence or absence of cell stimulants, for 72 hours. The test substance is added in a concentration range from 0.2 nanomolar to […]. […]
The excretion of aldosterone, cortisol, corticosterone and estradiol/estrone into the culture medium can be detected and quantified by commercially available; specific monoclonal antibodies in radioimmunoassays in accordance with the manufacturer's instructions.
Inhibition of the release of certain steroids can be used as a measure of the respective enzyme inhibition by the added test compounds. The dose-dependent inhibition of enzymic activity by a compound is calculated by means of an inhibition plot which is characterized by an IC50.
The IC50 values for active test compounds are ascertained by a simple linear regression analysis in order to construct inhibition plots without data weighting. The inhibition plot is calculated by fting a 4-parameter logistic function to the raw data points using the least squares method. The equation of the 4-parameter logistic function is calculated as follows: Y=(d−a)/((1+(x/c)b))+aI where: a=minimum data level b gradient I c=ICED d=maximum data level x=inhibitor concentration.

| SMILES | IC50 (aldosterone synthase) [µM] | inhibition at 10 µM (human aromatase) [%] | 11B1 % I @ 100 nM (CYP11B1) [%] |
| --- | --- | --- | --- |
| CCC1(C(C)(C)C)C(=O)N(Cc2ccc(F)cc2)Cc2cncn21 (single isomer, unassigned) [Compound 1, 5-tert-Butyl-5-ethyl-7-(4-fluoro-benzyl)-7,8-dihydro-imidazo[1,5-a]pyrazin-6-one] | 0.139 | 18 | – |
| CCC(C)(C)C1C(=O)N(Cc2cccc(F)c2)CCc2cncn21 (single isomer, unassigned) [Compound 2, 4-(1,1-Dimethyl-propyl)-6-(3-fluoro-benzyl)-7,8-dihydro-6H-2,3a,6-triaza-azulen-5-one] | 0.048 | 60 | 100 |
| CC(C)C1C(=O)N(CC2CCCCC2)Cc2cncn21 (single isomer, unassigned) [Compound 3, 7-Cyclohexylmethyl-5-isopropyl-7,8-dihydro-imidazo[5-a]pyrazin-6-one] | 0.011 | 48 | – |
| O=C1C(C2CCC2)n2cncc2CN1Cc1ccc(F)cc1 (single isomer, unassigned) [Compound 5, 5-Cyclobutyl-7-(4-fluoro-benzyl)-7,8-dihydro-imidazo[1,5-a]pyrazin-6-one] | 0.018 | 93 | – |
| CC(C)(C)C1C(=O)N(Cc2ccc(Cl)cc2)Cc2cncn21 (single isomer, unassigned) [Compound 6, 5-tert-Butyl-7-(4-chloro-benzyl)-7,8-dihydro-imidazo[1,5-a]pyrazin-6-one] | 0.003 | 51 | 98 |
| CCC(C)(C)C1C(=O)N(CC2CCCCC2)Cc2cncn21 (single isomer, unassigned) [Compound 7, 7-Cyclohexylmethyl-5 (1,1-dimethyl-propyl)-7,8-dihydro-imidazo[1,5-a]pyrazin-6-one] | 0.007 | 50 | – |
| N#Cc1ccc(CN2Cc3cncn3C(C3CC3)C2=O)cc1 (single isomer, unassigned) [Compound 8, 4-(5-Cyclopropyl-6-oxo-5,6-dihydro-8H-imidazo[1,5-a]pyrazin-7-ylmethyl)-benzonitrile] | 0.066 | 74 | 95 |
| CC(C)C1C(=O)N(Cc2cccc(F)c2)Cc2cncn21 (single isomer, unassigned) [Compound 9, 7-(3-Fluoro-benzyl)-5-isopropyl-7,8-dihydro-imidazo[1,5-a]pyrazin-6-one] | 0.231 | 94 | – |
| CCC(C)(C)C1C(=O)N(CC2CCOCC2)Cc2cncn21 (single isomer, unassigned) [Compound 10, 5-(1,1-Dimethyl-propyl)-7-(tetrahydro-pyran-4-ylmethyl)-7,8-dihydro-imidazo[5-a]pyrazin-6-one] | 0.19 | – | – |
| O=C1C(C2CCC2)n2cncc2CCN1Cc1ccc(F)cc1 (single isomer, unassigned) [Compound 11, 4-Cyclobutyl-6-(4-fluoro-benzyl)-7,8-dihydro-6H-2,3a,6-triaza-azulen-5-one] | 0.197 | 99 | – |
| O=C1N(Cc2ccc(F)cc2)Cc2cncn2C12CCCCC2 [Compound 4, 7′-(4-fluorobenzyl)-7′,8′-dihydro-6′H-spiro[cyclohexane-1,5′-imidazole[1,5-a]pyrazin]-6-one] | 0.073 | – | 99 |
